Laboratory results: publication PMC12055641, “The Study of Antistaphylococcal Potential of Omiganan and Retro-Omiganan Under Flow Conditions” (Probiotics and Antimicrobial Proteins, 2024)
Values joined by “and” are separate entries in the source; they are usually repeats but may differ in a detail not shown here. Equal entries are not always repeated. No end group written: not given here.

Experiments:
[1] = incubation with human skin S9 protease; cited from earlier work
[2] = tested on: mupirocin-resistant MRSA strains; set-up: method as in PMID 28581672; details: all mupirocin-resistant MRSA strains analyzed; cited from earlier work
[3] = tested on: S. aureus ATCC 33591 (MRSA); test: Biofilm formation in peptide-coated PDMS channels under flow; format: cell-based, Staphylococcus aureus; details: peptide co-immobilized on pDa-coated PDMS channel, 24 h flow
Protocol: (§1) Formation of the biofilm inside the PDMS flow chambers was performed using three peristaltic pumps working simultaneously (LP-pump, Kamush, Lipopharm, Poland) and sterile Tygon® 3350 silicone hoses (2.4 × 0.8 × 0.8 mm) with a length of 30 and 50 cm for inlet and outlet, respectively. Bacterial suspensions were prepared (0.5 × 10^7 CFU/mL) in sterile 50-mL test tubes, which were placed in a heating block at 37 °C. Before experiments, all channels were assessed for tightness and sterilized using a 70% 2-propanol solution (10 min, flow rate 1 mL/min) and rinsed with sterile PBS solution (10 min, flow 0.1 mL/min). The formation of biofilm inside the channels was divided into three stages: (1) adhesion—at this stage S. aureus suspensions were passed through the channels for 4 h at a flow rate of 0.1 mL/min; (2) rinsing—the previously used hoses were replaced with new sterile ones, and the channels were rinsed with sterile PBS solution for 10 min at a flow rate of 0.1 mL/min; (3) biofilm growth—after flushing the channels, the silicone hoses were placed in tubes with MHB medium, which was passed through the channels for 24 h at a flow rate of 0.1 mL/min. All experiments included growth and sterility controls.
(§2) Incorporation of omiganan and retro-omiganan into PDMS channels was conducted using a polydopamine (pDa) coating, as previously described with a slight modification resulting from flow-based experimental model. To do this, the pDa coating was done by rinsing the channels with a solution of dopamine hydrochloride (Sigma-Aldrich, 2 mg/mL) in 10 mM bicin buffer (pH 8.5) for 18 h, 0.3 mL/min in a closed system (Fig. 3A). Then, the channels were rinsed with a sterile solution of demineralized water. Further co-immobilization was conducted using new, sterile silicone hoses connected to flow chambers and test tubes containing aqueous solutions of the peptides (100 µg/mL) pumped through the channels in a closed system for 6 h at 0.3 mL/min (Fig. 3B). Assessment of peptide binding was performed using liquid chromatography (RP-HPLC), by comparing the content of the compounds in the solution before and after incorporation. Waters Alliance e2695 system with a Waters 2998 PDA Detector (software-Empower 3, Waters, Milford, MA, USA) was used. All analyses were carried out on a Waters X-Bridge Shield RP-18 column (3.0 × 100 mm, 3.5 μm particle size, 130 Å pore size) with UV detection at 214 nm and samples (10 μL) were eluted with a linear 10–90% acetonitrile gradient in deionized water over 15 min at 25.0 ± 0.1 °C. The mobile phase flow rate was 0.5 mL/min. Both eluents contained 0.1% (v/v) of TFA. Each peptide sample was analyzed in triplicate. Such functionalized PDMS channels were used for further studies on biofilm formation. […]

S. aureus ATCC 25923 = test: as above; format: cell-based, Staphylococcus aureus; details: peptide co-immobilized on pDa-coated PDMS channel, 24 h flow
Protocol: as §1, §2

ILRWPWWPWRRK-NH2 [Omiganan]
half-life [1]: ca. 10 min
MIC [2]: 12.5 µM and 22.7 µg/mL
reduction of bacteria forming biofilm relative to control [3]: 98%
reduction of bacteria forming biofilm relative to control (S. aureus ATCC 25923): 71%

KRRWPWWPWRLI-NH2 [Retro-Omiganan]
reduction of bacteria forming biofilm relative to control [3]: 96%
reduction of bacteria forming biofilm relative to control (S. aureus ATCC 25923): 81%
